Measured values as given in patent US20250263370A1 (Tay Therapeutics Limited, priority 2022, published 2025).
Several values for one entry are separate records, joined by “and”; a condition that tells them apart may be missing. Equal entries are not always repeated. Entries after “also recorded” stand apart in the source; their conditions may differ.

Test system: collagen-induced arthritis
Experiment: Collagen-induced arthritis (CIA) model in rats: body weight, paw volume, clinical scores, clinical observations
Conditions: CIA rats
[1] = 10 mg/kg twice daily P.O. (group 6), day 21
[2] = 30 mg/kg twice daily P.O. (group 7)
[3] = 30 mg/kg twice daily P.O. (group 7), day 15
[4] = 30 mg/kg twice daily P.O. (group 7), day 19
[5] = 30 mg/kg twice daily P.O. (group 7), day 21

CNC(=O)c1[nH]c(C(=O)NC2CCC2)cc1O[C@@H](C)c1ccccc1 (stereo in doubt) [Example 101, N^5-cyclobutyl-N^2-methyl-3-(1-phenylethoxy)-1H-pyrrole-2,5-dicarboxamide] was tested, and the “animals with a score of 2 on one hind limb and no score on the other hind limb” value [1] was 1/8, the “animals with scores of 1 or 2 on both hind limbs” value [1] was 2/8 and the “animals with scores of 3 on each hind limb” value [1] was 3/8. The “animals with scores of 4 on one or more hind limbs” value (10 mg/kg twice daily P.O. (group 6), days 19 and 21) was 2/8, the “paw volume increase at plateau relative to day 0” value (10 mg/kg twice daily P.O. (group 6), plateau at day 18) was “approximately 50%” and the “Average animal paw volume percent change” value (10 mg/kg, Day 0, left hind paw (L)) was 0.00%. For the same molecule, the “Animal paw volume Day 0 L” value (10 mg/kg, Day 0, left paw, individual animals) was 1.39 mL and 1.26 mL (2×) and 1.29 mL (2×) and 1.31 mL and 1.30 mL and 1.37 mL, the “Average animal paw volume percent change” value (10 mg/kg, Day 0, right hind paw (R)) was 0.00% and the “Animal paw volume Day 0 R” value (10 mg/kg, Day 0, right paw, individual animals) was 1.41 mL and 1.26 mL (2×) and 1.30 mL (3×) and 1.31 mL and 1.37 mL. For the same molecule, the “Average animal paw volume percent change” value (10 mg/kg, Day 6, left hind paw (L)) was 1.14%, the “Animal paw volume Day 6 L” value (10 mg/kg, Day 6, left paw, individual animals) was 1.41 mL and 1.23 mL and 1.31 mL and 1.33 mL and 1.34 mL and 1.35 mL and 1.37 mL and 1.26 mL and the “Average animal paw volume percent change” value (10 mg/kg, Day 6, right hind paw (R)) was 0.87%. For the same molecule, the “Animal paw volume Day 6 R” value (10 mg/kg, Day 6, right paw, individual animals) was 1.41 mL and 1.24 mL and 1.32 mL and 1.33 mL and 1.34 mL (2×) and 1.36 mL and 1.26 mL, the “Average animal paw volume percent change” value (10 mg/kg, Day 12, left hind paw (L)) was 7.61% and the “Animal paw volume Day 12 L” value (10 mg/kg, Day 12, left paw, individual animals) was 1.52 mL and 1.26 mL and 1.43 mL and 1.63 mL and 1.34 mL and 1.44 mL and 1.39 mL and 1.27 mL. The “Average animal paw volume percent change” value (10 mg/kg, Day 12, right hind paw (R)) was 7.98%, the “Animal paw volume Day 12 R” value (10 mg/kg, Day 12, right paw, individual animals) was 1.44 mL and 1.27 mL and 1.88 mL and 1.33 mL and 1.35 mL and 1.38 mL and 1.39 mL and 1.29 mL and the “Average animal paw volume percent change” value (10 mg/kg, Day 13, left hind paw (L)) was 16.61%. The “Animal paw volume Day 13 L” value (10 mg/kg, Day 13, left paw, individual animals) was 1.71 mL and 1.32 mL and 1.81 mL and 1.83 mL and 1.35 mL and 1.45 mL and 1.44 mL and 1.31 mL, the “Average animal paw volume percent change” value (10 mg/kg, Day 13, right hind paw (R)) was 10.89% and the “Animal paw volume Day 13 R” value (10 mg/kg, Day 13, right paw, individual animals) was 1.54 mL and 1.32 mL and 1.90 mL and 1.37 mL (2×) and 1.41 mL and 1.44 mL and 1.29 mL. For the same molecule, the “Average animal paw volume percent change” value (10 mg/kg, Day 14, left hind paw (L)) was 30.15%, the “Animal paw volume Day 14 L” value (10 mg/kg, Day 14, left paw, individual animals) was 2.00 mL and 1.50 mL and 2.07 mL and 2.45 mL and 1.39 mL and 1.45 mL and 1.44 mL and 1.31 mL and the “Average animal paw volume percent change” value (10 mg/kg, Day 14, right hind paw (R)) was 21.45%. For the same molecule, the “Animal paw volume Day 14 R” value (10 mg/kg, Day 14, right paw, individual animals) was 1.62 mL and 1.68 mL and 2.23 mL and 1.67 mL and 1.37 mL and 1.43 mL and 1.46 mL and 1.28 mL, the “Average animal paw volume percent change” value (10 mg/kg, Day 15, left hind paw (L)) was 40.41% and the “Animal paw volume Day 15 L” value (10 mg/kg, Day 15, left paw, individual animals) was 2.13 mL and 1.73 mL and 2.33 mL and 2.49 mL and 1.41 mL and 1.60 mL and 1.49 mL and 1.51 mL. The “Average animal paw volume percent change” value (10 mg/kg, Day 15, right hind paw (R)) was 34.05%, the “Animal paw volume Day 15 R” value (10 mg/kg, Day 15, right paw, individual animals) was 1.93 mL and 1.83 mL and 2.53 mL and 1.91 mL and 1.38 mL and 1.45 mL and 1.51 mL and 1.52 mL and the “Average animal paw volume percent change” value (10 mg/kg, Day 18, left hind paw (L)) was 59.21%. For the same molecule, the “Animal paw volume Day 18 L” value (10 mg/kg, Day 18, left paw, individual animals) was 2.40 mL and 2.04 mL and 2.54 mL and 2.70 mL and 1.51 mL (2×) and 2.30 mL and 1.64 mL, the “Average animal paw volume percent change” value (10 mg/kg, Day 18, right hind paw (R)) was 54.15% and the “Animal paw volume Day 18 R” value (10 mg/kg, Day 18, right paw, individual animals) was 2.23 mL and 2.08 mL and 2.52 mL and 2.74 mL and 1.59 mL and 1.91 mL and 1.58 mL and 1.51 mL. The “Average animal paw volume percent change” value (10 mg/kg, Day 19, left hind paw (L)) was 58.75%, the “Animal paw volume Day 19 L” value (10 mg/kg, Day 19, left paw, individual animals) was 2.38 mL and 2.04 mL and 2.49 mL and 2.64 mL and 1.48 mL and 2.32 mL and 1.65 mL and 1.60 mL and the “Average animal paw volume percent change” value (10 mg/kg, Day 19, right hind paw (R)) was 54.16%. For the same molecule, the “Animal paw volume Day 19 R” value (10 mg/kg, Day 19, right paw, individual animals) was 2.36 mL and 2.05 mL and 2.47 mL and 2.71 mL and 1.58 mL and 1.87 mL and 1.57 mL and 1.56 mL, the “Average animal paw volume percent change” value (10 mg/kg, Day 21, left hind paw (L)) was 60.25% and the “Animal paw volume Day 21 L” value (10 mg/kg, Day 21, left paw, individual animals) was 2.38 mL and 2.03 mL and 2.48 mL and 2.64 mL and 1.48 mL and 2.33 mL and 1.83 mL and 1.60 mL. The “Average animal paw volume percent change” value (10 mg/kg, Day 21, right hind paw (R)) was 59.20%, the “Animal paw volume Day 21 R” value (10 mg/kg, Day 21, right paw, individual animals) was 2.35 mL and 2.04 mL and 2.46 mL and 2.68 mL and 1.58 mL and 2.15 mL and 1.82 mL and 1.62 mL and the “animals that never showed signs of disease” value [2] was “one animal”. For the same molecule, the “average clinical score relative to CIA + vehicle (group 2)” value [2] was “significantly decreased (p<0.01) relative to animals in group 2 on days 18, 19 and 21”, the “average overall clinical score at plateau” value [2] was 4 and the “day on which paw volume noticeably increased” value [2] was ~19 days. For the same molecule, the “effect on hind paw volume” value [2] was “most effective dose at preventing an increase in paw volume; also recorded: Paw volume increases were delayed; also recorded: proved most effective”, the “paw volume increase at plateau relative to day 0” value [2] was “approximately 35%” and the “paw volume relative to CIA + vehicle (group 2)” value [2] was “significantly reduced relative to group 2 at day 15 (left paw, p<0.05) and days 18, 19, 21 (both paws, p<0.01)”. For the same molecule, the “animals exhibiting signs of disease” value (30 mg/kg twice daily P.O. (group 7), day 12) was “One animal”, the animals exhibiting disease [3] was 4/8 and the “animals with a score of 2 on one hind limb” value [3] was 2/8. For the same molecule, the animals exhibiting disease (30 mg/kg twice daily P.O. (group 7), day 16) was 5/8, the “animals with scores of 2 or 3 on both hind limbs” value (30 mg/kg twice daily P.O. (group 7), day 18) was 3/8 and the animals exhibiting disease [4] was 7/8. For the same molecule, the “animals with a score of 2 or 3 on both hind limbs” value [4] was 4/8, the “animals with a clinical score of 3 on both hind limbs” value [5] was 4/8 and the “animals with a score of 1 on one or both hind limbs” value [5] was 3/8. For the same molecule, the “animals with no clinical score” value [5] was 1/8 and the “Average animal paw volume percent change” value (30 mg/kg, Day 0, left hind paw (L)) was 0.00%.
